From patent US20110104179A1 (priority 2009, published 2011)
Where “and” joins values, the source holds several entries; their conditions need not be identical. Equal entries are not always repeated. Where two headings read alike, the source gives them in different places. Ends that are not written are not given here.

Key:
RgpB = RgpB (Porphyromonas gingivalis, UniProt P95493); conditions: comparison value, cited from earlier work
[1] = test system: Arginine-gingipains (P. gingivalis W50 whole cell proteases); assay type: cell-based, Porphyromonas gingivalis W50
[2] = biological target: Lysine-gingipains (P. gingivalis ATCC 33277 whole cell proteases) (Porphyromonas gingivalis, UniProt B2RLK2); assay type: cell-based, Porphyromonas gingivalis ATCC 33277; conditions: for Activity with ATCC33277, Lys-gingipains: peptide alone 100 μM, activity ± standard deviation
[3] = test system: Arginine-gingipains (P. gingivalis ATCC 33277 whole cell proteases); assay type: cell-based, Porphyromonas gingivalis ATCC 33277
[4] = 200 μM peptide concentration (FIG. 2, Table 2)

| Compound | IC50 (RgpB; read-out: IC50 against RgpB) | Ki (RgpB; read-out: RgpB Ki) | Protease activity (%) of the Arginine-gingipains, W50 Whole Cell Proteases [1] | Protease activity (%) of the Lysine-gingipains, ATCC 33277 Whole Cell Proteases ([2]; 100 μM peptide) | Protease activity (%) of the Lysine-gingipains, ATCC 33277 Whole Cell Proteases ([2]; 200 μM peptide) | inhibition of whole cell Lys-specific proteolytic activity [2, 4] | Protease activity (%) of the Lysine-gingipains, ATCC 33277 Whole Cell Proteases ([2]; 300 μM peptide) | inhibition of whole cell Lys-specific proteolytic activity ([2]; concentration not given) | Activity with ATCC33277, Lys-gingipains [2] | Activity with ATCC33277, Arg-gingipains [3] | Protease activity (%) of the Arginine-gingipains, ATCC 33277 Whole Cell Proteases [3] | inhibition of whole cell Arg-specific proteolytic activity [3] |
| --- | --- | --- | --- | --- | --- | --- | --- | --- | --- | --- | --- | --- |
| C[C@H]1c2cccc(O)c2C(=O)C2=C(O)[C@]3(O)C(=O)C(C(N)=O)=C(O)[C@@H](N(C)C)[C@@H]3[C@@H](O)[C@@H]21 [doxycycline] | 3 µM |  |  |  |  |  |  |  |  |  |  |  |
| [H]/N=C(\N/C(=N/[H])NCCCCCCNC(=N)NC(=N)Nc1ccc(Cl)cc1)Nc1ccc(Cl)cc1 [chlorhexidine] |  | 262 µM |  |  |  |  |  |  |  |  |  |  |
| LPQEVLNENLLRF [αS1-casein(11-23)] |  |  | 22% | 64% | 43% | ~60% | 34% | ~60% | 2.73 ± 0.60 | 18.00 ± 3.53 | 38% and 39% and 62% | ~70% and 40% and ~60% |
| YQEPVLGPVRGPFPIIV [β-casein(193-209)] |  |  | 46% | 71% | 59% | 50% | 49% | 40-50% | 3.03 ± 1.20 | 20.03 ± 2.51 | 50% and 69% | 50% and 30% and 40-50% |
| YQEPVLGPVRGPF [β-casein(193-205)] |  |  |  |  |  |  |  | not as potent |  |  |  |  |
